Series [1] in a line: Oral bioavailability in dog. The class given is ADME, organism-based, Canis lupus familiaris. The conditions noted are these: in vivo.
Series [2] is described as follows: Oral bioavailability in rat. It is filed as ADME, organism-based. As to conditions: in vivo.
The target of another series is Coagulation factor X (Homo sapiens, UniProt P00742). Nature of the series: Binding affinity of the compoumd to human coagulation factor Xa.
A short description of series [3]: Solubility in pH 7.0 phosphate buffer. It is filed as physicochemical.
The target of another series is Prothrombin (Homo sapiens, UniProt P00734). Nature of the series: Binding affinity against human thrombin.
The target of a further series is Trypsin (Homo sapiens, UniProt P07477+P07478+P35030). Nature of the series: Binding affinity against human trypsin. The class given is protein assay.
The target in the next series is Serine protease 1 (Homo sapiens, UniProt P07477). Nature of the series: Binding affinity of the compoumd against human trypsin was determined.
Serine protease 1, sequence (P07477 whole entry): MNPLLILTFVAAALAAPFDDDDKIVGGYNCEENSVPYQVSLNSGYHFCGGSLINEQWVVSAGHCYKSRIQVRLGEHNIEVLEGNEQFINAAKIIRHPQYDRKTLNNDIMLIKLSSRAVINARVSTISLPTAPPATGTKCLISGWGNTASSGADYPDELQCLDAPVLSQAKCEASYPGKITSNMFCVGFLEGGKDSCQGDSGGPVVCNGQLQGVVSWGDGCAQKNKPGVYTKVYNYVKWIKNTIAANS

Coagulation factor X, sequence (P00742 41-179 limits assumed): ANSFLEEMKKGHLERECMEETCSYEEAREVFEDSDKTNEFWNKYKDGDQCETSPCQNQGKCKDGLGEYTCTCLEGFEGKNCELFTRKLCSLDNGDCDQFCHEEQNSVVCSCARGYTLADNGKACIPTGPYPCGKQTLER
Coagulation factor X, sequence (P00742 235-488 limits assumed): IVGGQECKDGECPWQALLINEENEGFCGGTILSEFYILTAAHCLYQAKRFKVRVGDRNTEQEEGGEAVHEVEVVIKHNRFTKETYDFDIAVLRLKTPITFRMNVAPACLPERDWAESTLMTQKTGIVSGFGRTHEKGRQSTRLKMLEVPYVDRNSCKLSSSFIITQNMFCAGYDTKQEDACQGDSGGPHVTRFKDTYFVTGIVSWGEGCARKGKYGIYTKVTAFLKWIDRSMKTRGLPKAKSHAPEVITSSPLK

In the case of `O=C(COc1ccc2[nH]c(-c3ccc(Cl)s3)nc2c1)Nc1ccc(N2CCOCC2=O)cc1`, the bioavailability in series [1] and in series [2] was under 20% each time. Also, the IC50 (as a rule, the point on the concentration scale where inhibition reaches its midpoint) at Coagulation factor X came out at 0.15 µM. Also, in series [3], the solubility (in general, the dissolved amount per volume that the medium holds) was under 10 µg/mL.
On to `O=C(Cc1ccc2[nH]c(-c3ccc(Br)s3)nc2c1)NCC1CCN(c2ccncc2)CC1`, for which the bioavailability in series [1] and in series [2] was under 20% each time. For the same compound, the IC50 is 0.0052 µM at Coagulation factor X, over 10 µM on Prothrombin and over 10 µM at Trypsin. This compound showed a solubility in series [3] of under 10 µg/mL.
With `CCC[C@@H](NC(=O)Nc1ccc(Cl)cc1)C(=O)Nc1ccc(N2CCOCC2=O)cc1`, the bioavailability in series [1] and in series [2] was under 20% throughout. The IC50 on Prothrombin and at Serine protease 1 was over 10 µM each time. The compound further returned a solubility in series [3] of under 10 µg/mL.
As to `O=C(CCc1ccc2[nH]c(-c3ccc(Cl)s3)nc2c1)Nc1ccc(N2CCOCC2=O)cc1`, the bioavailability in series [1] and in series [2] was under 20% in each case. Further, the solubility in series [3] was under 10 µg/mL.
Regarding `O=C(Cc1ccc2[nH]c(-c3ccc(Cl)s3)nc2c1)NCc1ccc(N2CCOCC2=O)cc1`, the bioavailability in series [1] and in series [2] was under 20% each time. Also, the IC50 on Coagulation factor X came to 0.17 µM. This compound also showed a solubility in series [3] of under 10 µg/mL.
With `O=C(Nc1ccc(N2CCOCC2=O)cc1)c1ccc2[nH]c(-c3ccc(Cl)s3)nc2c1`, the bioavailability in series [1] and in series [2] was under 20% in each case. Besides, the half-inhibitory concentration (IC50) at Prothrombin and on Trypsin was over 10 µM throughout. The solubility in series [3] was under 10 µg/mL.
For `O=C(Cc1ccc2[nH]c(-c3ccc(Cl)s3)nc2c1)Nc1ccc(N2CCOCC2=O)cc1`, the bioavailability in series [1] and in series [2] was under 20% throughout. For the same compound, the concentration for half-maximal inhibition (IC50) on Prothrombin and at Trypsin was over 10 µM each time. The solubility in series [3] was under 10 µg/mL.
As to `Cc1cc(NC(=O)Cc2ccc3[nH]c(-c4ccc(Br)s4)nc3c2)ccc1N1CCOCC1=O`, the bioavailability in series [1] and in series [2] was under 20% each time. This compound also displayed an IC50 on Coagulation factor X of 0.041 µM. The compound also gave a solubility in series [3] of under 10 µg/mL.
As for `N=C(N)c1cccc(N[C@H](C(=O)Nc2ccc(N3CCCCC3=O)cc2)c2ccccc2)c1`, the bioavailability in series [1] and in series [2] was under 20% throughout. For the same compound, at Coagulation factor X, the half-inhibitory concentration (IC50) was found to be 0.015 µM. In series [3], the solubility is under 10 µg/mL.
As for `CS(=O)(=O)c1ccccc1-c1ccc(NC(=O)Cc2ccc3[nH]c(-c4ccc(Cl)s4)nc3c2)cc1`, the bioavailability in series [1] and in series [2] was under 20% throughout. For the same compound, the half-maximal inhibitory concentration (IC50) on Prothrombin and on Trypsin was over 10 µM in each case. The same compound showed a solubility in series [3] of under 10 µg/mL.
With `O=C(Cc1ccc2[nH]c(-c3ccc(Cl)s3)nc2c1)NCC1CCN(c2ccncc2)CC1`, the bioavailability in series [1] and in series [2] was under 20% each time. Further, the IC50 at Coagulation factor X was 0.014 µM; at Prothrombin it was over 10 µM; at Trypsin it was over 10 µM. The solubility in series [3] was under 10 µg/mL.
As to `CC1CC(=O)NN=C1c1ccc2[nH]c(-c3ccc(Cl)s3)nc2c1` (centres undefined), the bioavailability in series [1] and in series [2] was under 20% throughout. Also, the IC50 at Prothrombin and on Trypsin was over 10 µM throughout. Further, the solubility in series [3] is under 10 µg/mL.
Turning to `O=C(CCc1ccc2nc(-c3ccc(Br)s3)[nH]c2c1)NCC1CCN(c2ccncc2)CC1`, the bioavailability in series [1] and in series [2] was under 20% each time. This compound also displayed an IC50 at Coagulation factor X of 0.058 µM. This compound also registered a solubility in series [3] of under 10 µg/mL.
`O=C(CCc1ccc2[nH]c(-c3ccc(Cl)s3)nc2c1)Nc1ccc(N2CCOCC2=O)c(Cl)c1`: the bioavailability in series [1] and in series [2] was under 20% in each case. The figures for the half-inhibitory concentration (IC50) at Coagulation factor X, on Prothrombin and on Serine protease 1 were 0.007 µM, over 10 µM and over 10 µM, respectively. The compound further came in with a solubility in series [3] of under 10 µg/mL.
In the case of `O=C(Cc1ccc2[nH]c(-c3ccc(Cl)s3)nc2c1)Nc1ccc(N2CCCC2=O)cc1`, the bioavailability in series [1] and in series [2] was under 20% in each case. The IC50 at Coagulation factor X was 0.53 µM; on Prothrombin, over 10 µM; at Trypsin, over 10 µM. Also, in series [3], the solubility is under 10 µg/mL.
For the compound `Cc1cc(NC(=O)COc2ccc3[nH]c(-c4ccc(Cl)s4)nc3c2)ccc1N1CCOCC1=O`, the bioavailability in series [1] and in series [2] was under 20% in each case. Moreover, the IC50 on Coagulation factor X is 0.02 µM; on Prothrombin, over 10 µM; on Trypsin, over 10 µM. The compound also displayed a solubility in series [3] of under 10 µg/mL.
As for `CC1CC(=O)NN=C1c1ccc2[nH]c(-c3ccc(Br)s3)nc2c1` (centres undefined), the bioavailability in series [1] and in series [2] was under 20% in each case. Moreover, the IC50 is 0.98 µM at Coagulation factor X, over 10 µM at Prothrombin and over 10 µM on Serine protease 1. Besides, the solubility in series [3] is under 10 µg/mL.
Regarding `Cc1cc(NC(=O)Cc2ccc3[nH]c(-c4ccc(Cl)s4)nc3c2)ccc1N1CCOCC1=O`, the bioavailability in series [1] and in series [2] was under 20% in each case. In series [3], this compound displayed a solubility of under 10 µg/mL.
Consider `O=C(Cc1ccc2[nH]c(-c3ccc(Cl)s3)nc2c1)Nc1ccc(N2CCCCC2=O)cc1`, for which the bioavailability in series [1] and in series [2] was under 20% throughout. Besides, the IC50 on Coagulation factor X was 0.26 µM; on Prothrombin, over 10 µM; on Trypsin it was over 10 µM. In addition, in series [3], the solubility is under 10 µg/mL.
Regarding `Cc1cc(NC(=O)CCc2ccc3[nH]c(-c4ccc(Cl)s4)nc3c2)ccc1N1CCOCC1=O`, the bioavailability in series [1] and in series [2] was under 20% throughout. Further, the figures for the half-maximal inhibitory concentration (IC50) on Coagulation factor X, at Prothrombin and at Trypsin were 0.0082 µM, over 10 µM and over 10 µM, respectively. In addition, the solubility in series [3] was under 10 µg/mL.
Regarding `O=C(CCc1ccc2[nH]c(-c3ccc(Cl)s3)nc2c1)Nc1ccc(-n2ccccc2=O)c(F)c1`, the bioavailability in series [1] and in series [2] was under 20% in each case. The figures for the concentration for half-maximal inhibition (IC50) on Coagulation factor X, on Prothrombin and at Serine protease 1 were 0.0076 µM, over 10 µM and over 10 µM, respectively. This compound also registered a solubility in series [3] of under 10 µg/mL.
`O=C(Cc1ccc2[nH]c(-c3ccc(Br)s3)nc2c1)Nc1ccc(-n2ccccc2=O)cc1`: the bioavailability in series [1] and in series [2] was under 20% throughout. Also, the IC50 at Coagulation factor X was 0.063 µM; on Prothrombin it was over 10 µM; on Trypsin it was over 10 µM. The compound also returned a solubility in series [3] of under 10 µg/mL.
Turning to `O=C(NCc1ccc2[nH]c(-c3ccc(Cl)s3)nc2c1)c1ccc(N2CCOCC2=O)cc1`, the bioavailability in series [1] and in series [2] was under 20% throughout. In addition, the IC50 was 0.44 µM on Coagulation factor X, over 10 µM at Prothrombin and over 10 µM on Trypsin. Moreover, the solubility in series [3] is under 10 µg/mL.
`O=C(CNC(=O)Nc1ccc(Cl)cc1)Nc1ccc(N2CCOCC2=O)cc1`: the bioavailability in series [1] and in series [2] was under 20% in each case. Further, the figures for the half-maximal inhibitory concentration (IC50) at Coagulation factor X, on Prothrombin and on Serine protease 1 were 0.032 µM, over 10 µM and over 10 µM, respectively. Further, in series [3], the solubility was under 10 µg/mL.
`O=C(Cc1ccc(N2CCOCC2=O)cc1)Nc1ccc2[nH]c(-c3ccc(Cl)s3)nc2c1`: the bioavailability in series [1] and in series [2] was under 20% throughout. Moreover, the 50% inhibitory concentration (IC50) at Coagulation factor X was 1.2 µM; on Prothrombin, over 10 µM; at Trypsin, over 10 µM. Further, the solubility in series [3] is under 10 µg/mL.
On to `Cc1cc(NC(=O)Cc2ccc3[nH]c(-c4ccc(Cl)s4)nc3c2)ccc1-n1ccccc1=O`, for which the bioavailability in series [1] and in series [2] was under 20% each time. The compound also yielded an IC50 on Coagulation factor X of 0.18 µM. In series [3], this compound had a solubility of under 10 µg/mL.
Take `Cc1cc(NC(=O)CCc2ccc3[nH]c(-c4ccc(Br)s4)nc3c2)ccc1N1CCOCC1=O`: the bioavailability in series [1] and in series [2] was under 20% throughout. Also, the IC50 at Coagulation factor X was 0.0084 µM; at Prothrombin, over 10 µM; at Trypsin it was over 10 µM. In addition, in series [3], the solubility is under 10 µg/mL.
As to `O=C(CCc1ccc2nc(-c3ccc(Cl)s3)[nH]c2c1)Nc1ccc(N2CCOCC2=O)cc1F`, the bioavailability in series [1] and in series [2] was under 20% throughout. Further, the IC50 on Prothrombin and at Serine protease 1 was over 10 µM throughout. Besides, the solubility in series [3] was under 10 µg/mL.

The record behind these values is ChEMBL document CHEMBL1146806, “Halothiophene benzimidazoles as P1 surrogates of inhibitors of blood coagulation factor Xa” (Bioorg Med Chem Lett, 2004).
